In data set [1] the test system is KG-1, HL-60, K562, THP-1 cells. The format is cell-based.
Data set [2] addresses T1, FOXM1 (Homo sapiens, UniProt Q08050).
T1 sequence (Q08050 1-763): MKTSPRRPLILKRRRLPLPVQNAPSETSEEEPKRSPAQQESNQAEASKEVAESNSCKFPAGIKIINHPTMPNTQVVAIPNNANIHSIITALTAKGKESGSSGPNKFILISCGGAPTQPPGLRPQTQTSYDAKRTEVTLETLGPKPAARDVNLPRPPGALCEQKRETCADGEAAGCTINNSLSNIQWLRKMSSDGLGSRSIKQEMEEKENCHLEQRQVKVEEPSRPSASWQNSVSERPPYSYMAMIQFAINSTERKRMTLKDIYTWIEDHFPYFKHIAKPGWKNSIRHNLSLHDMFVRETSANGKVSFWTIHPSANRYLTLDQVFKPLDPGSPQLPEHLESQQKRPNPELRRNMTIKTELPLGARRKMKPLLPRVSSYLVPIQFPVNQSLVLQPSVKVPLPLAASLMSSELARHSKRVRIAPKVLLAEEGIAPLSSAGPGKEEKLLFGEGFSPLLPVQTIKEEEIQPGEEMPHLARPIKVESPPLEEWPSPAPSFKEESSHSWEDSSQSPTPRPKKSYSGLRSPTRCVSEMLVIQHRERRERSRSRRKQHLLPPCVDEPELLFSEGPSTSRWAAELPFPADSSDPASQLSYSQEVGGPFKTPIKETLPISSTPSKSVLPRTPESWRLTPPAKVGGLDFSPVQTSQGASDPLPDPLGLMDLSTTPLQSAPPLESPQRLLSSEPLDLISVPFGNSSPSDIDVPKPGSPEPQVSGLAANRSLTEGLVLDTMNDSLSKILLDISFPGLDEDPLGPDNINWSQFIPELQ
The data set can be described thus: FOXM1 protein levels by immunoblotting in solid cancer cell lines. The following applies: ovarian cancer cells (ES-2, OVCAR-8).
Protocol: Cell culture: Human cell lines LNCaP and 22Rv1 (human prostate carcinoma), OVCAR8 and ES-2 (High-grade serous ovarian cancer, HGSOC), HCT-116 and HCT-FET (human colorectal carcinoma), HCC-1143 (triple negative breast cancer (TNBC), TAMR (Tamoxifen resistant MCF7) human breast cancer, were provided from various investigators. LNCaP and 22Rv1 cell lines were cultured in RPMI-1640 with 2 mM L-Glutamine (Gibco; Thermo Fisher Scientific, Waltham, MA, USA). HCC-1143 cell lines were cultured in Iscove's Modified Dulbecco Medium (IMDM) with 2 mM L-Glutamine (Gibco; Thermo Fisher Scientific). OVCAR-8, ES-2, HCT-116, and HCT-FET cell lines were cultured in Dulbecco's Modified Eagle Medium (DMEM) with 4.5 g/L glucose and 4 mM L-Glutamine (Gibco; Thermo Fisher Scientific). For all cell lines, the growth media was supplemented with 10% Foetal Bovine Serum (FBS), penicillin (100 U/mL), and 100 μg/mL streptomycin (Gibco; Thermo Fisher Scientific). TAMR cells were routinely cultured in DMEM/F12 medium without phenol red (Gibco; Thermo Fisher Scientific), containing 1% charcoal-striped FBS, 2.5 mM L-Glutamine (Thermo Fisher Scientific), 6 ng/mL insulin (Millipore Sigma) and 50 nM 4-hydroxytamoxifen (4-OHT; Millipore Sigma). All cell lines were grown and maintained at 37° C. in a humidified incubator with 5% CO2. Sub-confluent cultures (70-80%) were split 1:5 using 0.25% Trypsin/EDTA (Millipore Sigma).
Drug treatment of cultured cells: After harvesting, cells were counted in presence of Trypan Blue (Thermo Fisher Scientific) and seeded onto tissue culture plates to achieve ~50% confluency. The next day, treatment of cells was performed by aspirating the nonadherent cells and growth medium and replacing it with the fresh one containing selected concentrations of drugs. For Tamoxifen based studies, the nonadherent cells and growth media was aspirated and replaced with the DMEM supplemented with 4.5 g/L glucose and 4 mM L-Glutamine, 10% FBS, penicillin (100 U/mL), 100 μg/mL streptomycin, 10 nM estrogen, and selected concentrations of drugs. […] Post-treatment at selected times, the cells were harvested, washed with ice-cold PBS and used for protein or RNA purification as described below.
Protein immunoblotting: Total protein was extracted using ice-cold radio-immunoprecipitation assay (RIPA) buffer (Millipore Sigma) supplemented with Halt protease- and phosphatise-inhibitor cocktails (Fisher Scientific), 2 mM sodium orthovanadate (New England Biolabs, Inc., USA), and 5 mM sodium fluoride (Millipore Sigma) according to the manufacturer's protocol. Protein content in each sample was estimated using Bio-Rad Protein Assay (Bio-Rad, USA). Equal amounts of protein (20-30 μg) were separated on hand-cast SDS/PAGE (6-12%) mini-protein gels and transferred to 0.2 μm Immobilon-Psq polyvinylidene difluoride (PVDF) transfer membrane (Millipore Sigma). Membranes were blocked with 4% bovine serum albumin (BSA; Millipore Sigma) in TRIS-buffered saline (TBS) with 0.1% Tween-20 (TBS-T, Thermo Fisher Scientific) and probed overnight at 4° C. with the primary antibodies (FOXM1, Cell Signaling Technology (CST), Inc., USA; Cleaved Caspase-3, CST; β-actin, Thermo Fisher Scientific) diluted according to the manufacturer's protocol. […] After incubating membranes with the secondary antibodies, the membranes were then washed three times for 10 min each with TBST. Protein bands were developed using SuperSignal™ West Pico PLUS Chemiluminescent Substrate (Thermo Fisher Scientific) and detected using ChemiDoc Imaging System (Bio-Rad).

The target in data set [3] is T1, FOXM1. Also noted: Total protein samples obtain from treated cells were analyzed for FOXM1 protein levels via immunoblotting; endogenous in cells. The following applies: solid cancer cell lines; cited from earlier work.
The target of data set [4] is T1, FOXM1. In words: FOXM1 protein levels by immunoblotting in leukemia/AML cell lines. The format is cell-based. The arrangement: Total protein samples obtain from treated cells were analyzed for FOXM1 protein levels via immunoblotting; endogenous in cells; host or cells: KG-1, HL-60, K562, THP-1 leukemia cell lines. The procedure: [a] Leukemia cells, KG-1, HL-60 and K562 were treated with increasing concentrations of STL427944 for 24 hrs. […] [b] THP1 and KG-1 cells were treated with indicated concentrations of venetoclax and STL427944 alone or in combination for 24 hrs. [c] KG-1 and K562 cells were treated with indicated concentrations of cytarabine and STL427944 alone or in combination for 24 hrs.
FIG. 8. STL427944 treatment of human leukemia cell lines suppress FOXM1 protein expression. (a) STL427944 treatment of human leukemia cell lines inhibit FOXM1 protein expression and sensitize cells to venetoclax treatment. […] (b) Stable shRNA-mediated FOXM1 knockdown prominently sensitizes KG-1 cells to cytotoxic effect of venetoclax. (c, d) combined treatment with STL427944 and venetoclax suppresses FOXM1 in KG-1 and THP-1 cells and synergistically promotes cytotoxic effects similarly to FOXM1 knockdown. Total protein was isolated from cells immediately after the treatment and analyzed via immunoblotting with FOXM1 antibodies). Apoptosis induction was estimated based on caspase-3 cleavage.
FIGS. 9A and 9B: Novel FOXM1 inhibitor STL001 sensitizes Leukemia cells to chemotherapy agents. [a] Structural formula of novel FOXM1 inhibitor STL001. [b] Leukemia cells, KG-1, HL-60, and K562 were treated with increasing concentrations of STL001 for 24 hrs. […] [c] KG-1 cells were treated with indicated concentrations of Laptomycin B, Chloroquine, and STL001 for 24 hrs. […] [d] KG-1, HL-60, and K562 cells were treated with indicated concentrations of venetoclax and STL001 alone or in combination for 24 hrs. [e] KG-1, HL-60, and K562 cells were treated with indicated concentrations of cytarabine and STL alone or in combination for 24 hrs.
FIGS. 13A-13H STL001 is a novel FOXM1 inhibitor that sensitizes leukemia cells to standard cytotoxic and bcl2 inhibitor therapies. FIG. 13A AML cell line KG-1 treated with precursor compound STL427944. FIG. 3B AML cell lines KG-1, HL-60, and K562 were treated with increasing concentrations of STL001 for 24 h. Total protein samples obtained from treated cells were analyzed for FOXM1 protein levels using immunoblotting; β-actin was used as the internal loading control. FIG. 13C KG-1, HL-60, and K562 cells were treated with indicated concentrations of venetoclax and STL001 alone or in combination for 24 h. FIG. 13D KG-1, HL-60, and K562 cells were treated with indicated concentrations of cytarabine and STL001 alone or in combination for 24 h. […] FIG. 13E KG-1 cells were treated with indicated concentrations of Leptomycin B, Chloroquine, and STL001 for 24 h. Total protein samples obtained from treated cells were analyzed for FOXM1 protein levels via immunoblotting; β-actin was used as an internal loading control. FIG. 13F KG-1 cell lines with shRNA knockdown of FOXM1 were treated with venetoclax and STL001 and compared to parental cells. FIG. 13G Real-time PCR-based expression profiling for canonical FOXM1 target genes was performed on primary AML mononuclear cells (n=5) treated ex vivo with STL001 5 μM for 24 h. Mean and standard error of the delta Ct for DMSO or treatment group are plotted for each gene. P-value is estimated by two-tailed paired t-test. Asterisks denote P<0.05. FIG. 13H Treatment of peripheral blood mononuclear cells with STL001 for 24 h followed by immunohistochemistry for FOXM1. Slides were scanned on an Aperio AT2 brightfield scanner and images were analyzed using HALO 2.0 software. Hematoxylin counterstain was used to segment nuclei within the ROIs and to establish an accurate cell count. Percent cells with nuclear FOXM1 expression compared between DMSO and STL001 treated cells. P-value is based on one-tailed paired t-test.
On the technique in general: Immunoblotting shows a protein as a band on a membrane.

In data set [5] the target is T1, FOXM1. Also noted: Total protein samples obtain from treated cells were analyzed for FOXM1 protein levels via immunoblotting; endogenous in cells; host or cells: KG-1, HL-60, K562, THP-1 leukemia cell lines. The following applies: cited from earlier work.

Entries after “also recorded” stand apart in the source; their conditions may differ.

The source of these data is patent US20260217691A1, “FOXM1 INHIBITORS AND THEIR USE IN TREATING CANCERS” (THE BOARD OF TRUSTEES OF THE UNIVERSITY OF ILLINOIS, priority 2022, published 2026).

Regarding `O=C(Oc1cccc(/C=N/Nc2nc(Nc3ccccc3)nc(N3CCOCC3)n2)c1)c1ccco1` [STL427944], in data set [1] (KG-1/THP-1 cells), the “apoptosis (caspase-3 cleavage) in combination with venetoclax” value was “synergetic induction of apoptosis”. The “efficiency of sensitization to venetoclax treatment” value in data set [1] (KG-1 cells, versus shRNA FOXM1 knockdown) was “comparable to effects caused by shRNA-mediated FOXM1 knockdown”. For the same compound, the “effect on cytotoxicity of chemotherapeutic drugs (venetoclax, cytarabine)” value in data set [1] (THP1, KG-1, K562 cells, 24 hrs) is reported as “enhances the cytotoxic effect of conventional chemotherapeutic drugs”. Also, the “efficacy in knocking down FOXM1 expression” value at FOXM1 [2] is on record as “lesser efficacy as compared to STL001”. Moreover, the “concentrations showing modest FOXM1 suppression” value at FOXM1 [3] was 25 to 50 µM. The “concentration showing modest FOXM1 inhibition” value on FOXM1 [4] (AML cell line KG-1) was 25 µM. The “Potency in AML” value at FOXM1 [4] (estimated) is given as “uM range”. For the same compound, the FOXM1 protein levels entry at FOXM1 [4] (leukemia cell lines, increasing concentrations, 24 h) is on record as “dose-dependent suppression of FOXM1 protein levels; also recorded: efficiently reduces FOXM1 protein levels”. Moreover, the “sensitivity of treated human cancer cells to platinum-based agents, 5-fluorouracil, taxanes” value at FOXM1 [5] (human cancer cells) was “increased sensitivity to cytotoxic effects of conventional chemotherapeutic treatments”. Also, on FOXM1 [5] (relocalization of nuclear FOXM1 to cytoplasm, degradation by autophagosomes), the “effect on FOXM1” value was “selectively suppresses FOXM1”.
